Test results as given in patent US20230263822A1, “MODULATION OF FACTOR 11 EXPRESSION” (Ionis Pharmaceuticals, Inc., priority 2008, published 2023).
pIC50: −log10 of the molar value. e = 2'-O-(2-methoxyethyl) (MOE); d = 2'-deoxy (DNA)

Key:
human Factor 11 mRNA [1] = assay: Antisense inhibition of human Factor 11 in HepG2 cells, lipofectin, 75 nM (Example 1); type: cell-based; conditions: 75 nM antisense oligonucleotide, ~24 h, relative to untreated control cells, gapmers targeted to SEQ ID NO: 1
Procedure, shortened: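 HepG2 cells transfected via lipofectin with 75 nM antisense oligonucleotide (5-10-5 MOE gapmers, 20-mers, phosphorothioate, 5-methylcytidines), treated ~24 h. Factor 11 mRNA quantified by real-time PCR, normalised to RIBOGREEN total RNA; percent inhibition versus untreated cells.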

[2] = set-up: species or system CD1 mice; conditions: mouse, in vivo, sc, 50 mg/kg
Method: The concentration of the full-length oligonucleotide was measured. The method used is a modification of previously published methods (Leeds et al., 1996; Geary et al., 1999) which consist of a phenol-chloroform (liquid-liquid) extraction followed by a solid phase extraction. An internal standard (ISIS 355868, a 27-mer 2′-O-methoxyethyl modified phosphorothioate oligonucleotide, […], designated herein as SEQ ID NO: 270) was added prior to extraction. […] The results are presented in Table 85 expressed as μg/g liver tissue.

[3] = Viscosity of ISIS antisense oligonucleotides, micro-viscometer at 25 °C (Example 47); type: physicochemical; conditions: for Concentration: concentration of the viscosity sample, UV reading at 260 nM at 85° C.; for Viscosity: in water, micro-viscometer at 25° C., at the concentration of the same line
Procedure, shortened: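 Oligonucleotide (32-35 mg) was dissolved in 120 μL water by heating at 50° C, and viscosity was measured by micro-viscometer at 25° C. Concentration was checked by UV at 260 nm at 85° C on a dilution in water. Screening cut-off: >40 cP at 165-185 mg/mL.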

human Factor 11 mRNA [4] = assay: Antisense inhibition of human Factor 11 in HepG2 cells, electroporation, 8,000 nM (Example 30); type: cell-based; conditions: electroporation, 8,000 nM antisense oligonucleotide
Procedure, shortened: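 HepG2 cells electroporated with 8,000 nM 5-10-5, 5-8-5 or 6-8-6 MOE gapmers (phosphorothioate, 5-methylcytidine), ~24 h. Factor 11 mRNA quantified by qRT-PCR, normalised to RIBOGREEN total RNA. Reported as percent inhibition versus untreated cells.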

human Factor 11 mRNA [5] = assay: Dose-dependent antisense inhibition of human Factor 11 in HepG2 cells, lipofectin 9.375-150 nM (Example 2); type: cell-based; conditions: ~16 h
Method: Cells were plated at a density of 10,000 cells per well and transfected using lipofectin reagent with 9.375 nM, 18.75 nM, 37.5 nM, 75 nM, and 150 nM concentrations of antisense oligonucleotide, as specified in Table 3. After a treatment period of approximately 16 hours, RNA was isolated from the cells and Factor 11 mRNA levels were measured by quantitative real-time PCR. Human Factor 11 primer probe set RTS 2966 (forward sequence: […], incorporated herein as SEQ ID NO: 3; reverse sequence: […], incorporated herein as SEQ ID NO: 4; probe sequence: TTGTCTACTGAAGCACACCCAAACAGGGAX, incorporated herein as SEQ ID NO: 5) was used to measure mRNA levels. Factor 11 mRNA levels were adjusted according to total RNA content, as measured by RIBOGREEN. Results are presented as percent inhibition of Factor 11, relative to untreated control cells.

[6] = set-up: species or system Sprague-Dawley rats; conditions: rat, in vivo, sc, 20 mg/kg
Method: The concentration of the full-length oligonucleotide as well as the total oligonucleotide concentration (including the degraded form) was measured. The method used is a modification of previously published methods (Leeds et al., 1996; Geary et al., 1999) which consist of a phenol-chloroform (liquid-liquid) extraction followed by a solid phase extraction. An internal standard (ISIS 355868, a 27-mer 2′-O-methoxyethyl modified phosphorothioate oligonucleotide, […], designated herein as SEQ ID NO: 270) was added prior to extraction. […] The results are presented in Tables 91 and 92, expressed as μg/g liver or kidney tissue. Half-lives were then calculated using WinNonlin software ([…]).

human Factor 11 mRNA [7] = assay: Antisense inhibition of human Factor 11 in HepG2 cells by microwalk gapmers, lipofectin, 75 nM (Example 3); type: cell-based; conditions: HepG2 cells, lipofectin, gapmers targeted to nucleobases 1275 to 1318 of SEQ ID NO: 1
Procedure, shortened: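 HepG2 cells (10,000/well) were transfected via lipofectin with 75 nM 20-mer MOE gapmers (phosphorothioate, 5-methyl-C) for about 24 h. Factor 11 mRNA was measured by qRT-PCR, normalized to RIBOGREEN total RNA, and given as percent inhibition versus untreated cells.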

human Factor 11 mRNA [8] = assay: Dose-dependent inhibition of human Factor 11 in HepG2 cells, electroporation 123.46-10,000 nM (Example 31); type: cell-based; conditions: for Percent inhibition of Factor 11 mRNA at 123.47 nM / Percent inhibition of Factor 11 mRNA at 370.37 nM / pIC50: electroporation; for Percent inhibition of Factor 11 mRNA at 123.47 nM / Percent inhibition of Factor 11 mRNA at 370.37 nM / Percent inhibition of Factor 11 mRNA at 1,111.11 nM / Percent inhibition of Factor 11 mRNA at 3,333.33 nM / Percent inhibition of Factor 11 mRNA at 10,000.0 nM: approx. 16 hours, relative to untreated control cells; for Percent inhibition of Factor 11 mRNA at 1,111.11 nM: electroporation, 1,111.11 nM; for Percent inhibition of Factor 11 mRNA at 3,333.33 nM: electroporation, 3,333.33 nM; for Percent inhibition of Factor 11 mRNA at 10,000.0 nM: electroporation, 10,000.0 nM; for pIC50: Factor 11 mRNA expression
Procedure, shortened: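 HepG2 cells were electroporated with antisense oligonucleotide at 123.46, 370.37, 1,111.11, 3,333.33 and 10,000 nM and harvested about 16 hours later. Factor 11 mRNA was quantified by qRT-PCR and normalised to total RNA (RIBOGREEN). Inhibition is expressed relative to untreated cells.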

[9] = rat, in vivo, sc, 50 mg/kg
[10] = rat, in vivo, sc, 50 mg/kg; remark: listed apart in the source
[11] = rat, in vivo, sc, 50 mg/kg; remark: listed apart in the source

| Substance | Half-Life in the liver [2] [days] | Concentration [3] [mg/mL] | Viscosity [3] [cP] | Percent inhibition of human Factor 11 mRNA levels (human Factor 11 mRNA [4]) [%] | Half-life of ISIS oligonucleotides in the liver and kidney [6] [days] | % inhibition (human Factor 11 mRNA [7]) [%] | other results |
| --- | --- | --- | --- | --- | --- | --- | --- |
| 413481 (antisense GGTGCACAGTTTCTGGCAGG; 5-10-5 MOE gapmer, further chemistry not given here) [compound 413481] | 20.6 | 144 | 23 | 82 | 21 |  | % inhibition (human Factor 11 mRNA [1]): 86%; percent inhibition of Factor 11 at 9.375 nM (human Factor 11 mRNA [5]; 9.375 nM): 22%; percent inhibition of Factor 11 at 18.75 nM (human Factor 11 mRNA [5]; 18.75 nM): 38%; percent inhibition of Factor 11 at 37.5 nM (human Factor 11 mRNA [5]; 37.5 nM): 56%; percent inhibition of Factor 11 at 75 nM (human Factor 11 mRNA [5]; 75 nM): 67%; percent inhibition of Factor 11 at 150 nM (human Factor 11 mRNA [5]; 150 nM): 83%; pIC50 (human Factor 11 mRNA [5]): 7.49 |
| 416848 (antisense CACAGTTTCTGGCAGGCCTC; 5-10-5 gapmer, further chemistry not given here) [compound 416848] | 23.5 | 158 | 6 | 87 | 24 | 86 |  |
| 416851 (antisense GTGCACAGTTTCTGGCAGGC; 5-10-5 gapmer, further chemistry not given here) [compound 416851] | 23.8 | 187 | 26 | 89 | 24 | 88 | Percent inhibition of Factor 11 mRNA at 123.47 nM (human Factor 11 mRNA [8]): 13%; Percent inhibition of Factor 11 mRNA at 370.37 nM (human Factor 11 mRNA [8]): 35%; Percent inhibition of Factor 11 mRNA at 1,111.11 nM (human Factor 11 mRNA [8]): 36%; Percent inhibition of Factor 11 mRNA at 3,333.33 nM (human Factor 11 mRNA [8]): 64%; Percent inhibition of Factor 11 mRNA at 10,000.0 nM (human Factor 11 mRNA [8]): 72%; pIC50 (human Factor 11 mRNA [8]): 5.82 |
| 416852 (antisense TGGTGCACAGTTTCTGGCAG; 5-10-5 gapmer, further chemistry not given here) [compound 416852] | 28.4 | 169 | 29 | 87 | 28 | 84 |  |
| 416859 (antisense GACGGCATTGGTGCACAGTT; 5-10-5 gapmer, further chemistry not given here) [compound 416859] | 19.0 | 161 | 10 | 85 | 19 | 90 |  |
| 416860 (antisense CGGACGGCATTGGTGCACAG; 5-10-5 gapmer, further chemistry not given here) [compound 416860] | 20.6 | 154 | >100 | 89 | 21 | 88 | Percent inhibition of Factor 11 mRNA at 123.47 nM (human Factor 11 mRNA [8]): 0%; Percent inhibition of Factor 11 mRNA at 370.37 nM (human Factor 11 mRNA [8]): 28%; Percent inhibition of Factor 11 mRNA at 1,111.11 nM (human Factor 11 mRNA [8]): 39%; Percent inhibition of Factor 11 mRNA at 3,333.33 nM (human Factor 11 mRNA [8]): 41%; Percent inhibition of Factor 11 mRNA at 10,000.0 nM (human Factor 11 mRNA [8]): 40% |
| 416861 (antisense GCGGACGGCATTGGTGCACA; 5-10-5 gapmer, further chemistry not given here) [compound 416861] | 24.5 | 110 | 14 | 90 | 25 | 92 | Percent inhibition of Factor 11 mRNA at 123.47 nM (human Factor 11 mRNA [8]): 0%; Percent inhibition of Factor 11 mRNA at 370.37 nM (human Factor 11 mRNA [8]): 15%; Percent inhibition of Factor 11 mRNA at 1,111.11 nM (human Factor 11 mRNA [8]): 27%; Percent inhibition of Factor 11 mRNA at 3,333.33 nM (human Factor 11 mRNA [8]): 66%; Percent inhibition of Factor 11 mRNA at 10,000.0 nM (human Factor 11 mRNA [8]): 80%; pIC50 (human Factor 11 mRNA [8]): 5.70 |
| 416863 (antisense CAGCGGACGGCATTGGTGCA; 5-10-5 gapmer, further chemistry not given here) [compound 416863] | 19.8 | 165 | 9 | 86 | 20 | 83 |  |
| 416866 (antisense CTGGCAGCGGACGGCATTGG; 5-10-5 gapmer, further chemistry not given here) [compound 416866] | 16.0 | 166 | >100 | 84 | 16 | 88 |  |
| 416867 (antisense ACTGGCAGCGGACGGCATTG; 5-10-5 gapmer, further chemistry not given here) [compound 416867] | 18.9 | 168 | 8 | 85 | 19 | 83 |  |
| ISIS 416825: 5-10-5 MOE gapmer GCCCTTCATGTCTAGGTCCA (sugars from the 5' end e5 d10 e5, backbone and methylation of C not given here) |  |  |  |  |  |  | ALT [9]: 89 IU/L; AST [9]: 17 IU/L; Albumin [9]: 2; Bilirubin [9]: 4 mg/dL; BUN [10]: 7 mg/dL; Creatinine [10]: 17 mg/dL; HCT [11]: 2%; MCH [11]: 2; MCHC [11]: 4%; MCV [11]: 4; Platelets [11]: 6 10^3/μL; RBC [11]: 2; WBC [11]: 22 nL⁻¹; hemoglobin [11]: 2 g/dL; lymphocytes [11]: 3%; monocytes [11]: 15%; neutrophils [11]: 25% |
| ISIS 416826: 5-10-5 MOE gapmer ATGCCCTTCATGTCTAGGTC (sugars from the 5' end e5 d10 e5, backbone and methylation of C not given here) |  |  |  |  |  |  | ALT [9]: 611 IU/L; AST [9]: 104 IU/L; Albumin [9]: 6; Bilirubin [9]: 115 mg/dL; BUN [10]: 25 mg/dL; Creatinine [10]: 6 mg/dL; HCT [11]: 7%; MCH [11]: 3; MCHC [11]: 4%; MCV [11]: 6; Platelets [11]: 11 10^3/μL; RBC [11]: 5; WBC [11]: 7 nL⁻¹; hemoglobin [11]: 7 g/dL; lymphocytes [11]: 5%; monocytes [11]: 7%; neutrophils [11]: 30% |
